Data as given in patent US11471558B2, “Polypeptide and hyaluronic acid coatings” (INSTITUT NATIONAL DE LA SANTE ET DE LA RECHERCHE MEDICALE …, priority 2016, dated 2022).

Legend:
S. aureus [1] = settings: Adv. Funct. Mater. 2013, 23, 4801-4809; cited from earlier work
S. aureus [2] = test: Minimal inhibitory concentration of PAR in solution; format: cell-based; settings: for times less active than PAR100 or PAR200 chains (from MICs in solution): per chain; for bacterial growth inhibition by PAR in solution: 1 μM
Protocol: Staphylococcus aureus (S. aureus, ATCC 25923) strains were used to assess the antibacterial properties of the test samples. Bacterial strain was cultured aerobically at 37° C. in a Mueller Hinton Broth (MHB) medium (Merck, Germany), pH 7.4. One colony was transferred to 10 mL of MHB medium and incubated at 37° C. for 20 h, to provide a final density of 10^6 CFU·mL^−1. To obtain bacteria in the mid logarithmic phase of growth, the absorbance at 620 nm of overnight culture was adjusted of 0.001.
In the following the inventors of the present invention wanted to further elucidate the underlying mechanism that confer to the coatings of the invention the strong inhibitory property on the surface and in the supernatant. As an example the (PAR30/HA)24 coating was further investigated. Accordingly, the minimal inhibitory concentration (MIC) of PAR in solution was determined using bacterial assay as described in Experimental Section. […] Finally for PAR at concentrations of 0.01 mg·mL^−1, inhibition of 100% was shown only for PAR30. Longer or shorter PAR chains (PAR10, PAR100 or PAR200) inhibits only partially (less than 40%) S. aureus growth. […] This reasoning is valid when PAR concentration values are expressed in mass (mg·mL^−1) thus it is related to the number of arginine monomers. However when the graph is plotted with concentrations in μM (and thus proportional in number of chains), which means that concentration is related to number of chains, different interpretation can be made. […] Moreover the MIC100 values obtained for PAR30, PAR100 or PAR200 ranges at very low concentrations (between 1 and 2 μM) which is remarkable when compared to well-known antimicrobial peptides (for example 30 μM for cateslytin with S. aureus, see Adv. Funct. Mater. 2013, 23, 4801-4809). PAR is thus a powerful candidate to fight against S. aureus.
FIG. 12: Graph with the Minimal inhibitory concentration (MIC100) of soluble PAR with 10, 30, 100 or 200 arginine residues. The Minimal inhibitory concentration (MIC100) leading to 100% inhibition of S. aureus were measured in solution. PAR with 10, 30, 100 or 200 arginine residues were tested.

[3] = concentrations up to 0.04 mg·mL−1

| Substance | MIC with S. aureus (antimicrobial peptide, literature) (S. aureus [1]) | S. aureus growth inhibition by PAR in solution (S. aureus [2]; 0.03 mg·mL−1) | S. aureus growth inhibition by PAR in solution (S. aureus [2]; [3]) | times less active than PAR100 or PAR200 chains (from MICs in solution) (S. aureus [2]) | S. aureus growth inhibition by PAR in solution (S. aureus [2]; 0.01 mg·mL−1) | MIC90 (S. aureus [2]; PAR in solution, S. aureus) | bacterial growth inhibition by PAR in solution (S. aureus [2]) |
| --- | --- | --- | --- | --- | --- | --- | --- |
| cateslytin | 30 µM |  |  |  |  |  |  |
| poly-L-arginine [PAR10] |  | total inhibition | totally inhibited | 10 times |  |  |  |
| poly-L-arginine [PAR30] |  | total inhibition | totally inhibited | 2 times | 100% | about 2 μM |  |
| poly-L-arginine [PAR100] |  | total inhibition | totally inhibited |  |  |  | totally inhibit |
| poly-L-arginine [PAR200] |  | about 45% | totally inhibited |  |  |  | totally inhibit |
